Here are results for one compound from patent US6235891A, “Glucocorticoid receptor agonist and decreased PP5” (South Alabama Medical Science Foundation, priority 1999, dated 2001).

Assay [1] has as its system serum/glucocorticoid inducible protein kinase (sgk) mRNA. Kind of assay: Northern analysis of sgk mRNA. To be noted: 24 hours. The format is cell-based, human. How it is done: The cells were harvested, and total RNA was extracted with TRIzol® Reagent according to the methods of the manufacturer. Total RNA (20 μg) was fractionated on 1% agarose gels containing formaldehyde and transferred to DURLON-UV nylon membranes (Stratagene). Following UV cross-linking, the filters were hybridized with a [α^32 P]probe for human PP5. The human PP5 cDNA probe was generated from the full length coding region of PP5 and [α^32 P]-dATP was labeled with DECAprime® DNA Labeling Kit according to the manufacturer's protocol. […] Quantification of hybridization signals was achieved by analysis of the scanned autoradiograms using the NIH Image program (ImagePC).
The antiproliferative effect of dexamethasone correlates with the presence of wild type p53 and the expression of p21^Waf1/Cip1 mRNA. Referring to FIGS. 1A-1C, the effect of dexamethasone on cell proliferation in p53-defective T-24 human bladder carcinoma, p53-null TR9 human fibroblasts (Webster et al. 1993; Maiyar et al. 1996), and p53 wild-type A549 human lung carcinoma cells was determined by treating cells in log-phase growth with a single dose of 100 nM dexamethasone and counting the number of cells in treated (.cndot.) and untreated (.box-solid.) cultures for six consecutive days following treatment. […] After 24 hours total mRNA was prepared and analyzed for p21 and sgk mRNA levels by Northern analysis. […]

For a further assay, the system named is p53 phosphorylation. Kind of assay: Immunoprecipitation of [32P]-labelled p53 from A549 cells. The format is cell-based, human. To be noted: six hours, 100 nM dexamethasone or 300 nM ISIS 15534. How it is done:
Immunoprecipitation of p53 protein. A549 cells were cultured in 60 mm dishes until the cell cultures were about 80% confluent, washed with PBS and placed for 1 hour in phosphate-free DMEM containing 5% fetal bovine serum. The cell cultures were then treated with 100 nM dexamethasone or 300 nM ISIS 15521 or ISIS 15534 as described previously (Zuo et al. 1998), three dishes per group, and [^32 P] phosphate (0.2 mCi/ml) was added to the media. Six hours after treatment, the cells were collected, washed with ice-cold PBS and stored at -80° C. prior to analysis. […]
Referring to FIGS. 2A-2C, Northern blot analysis of 549 cells following treatment with dexamethasone and/or ISIS 15534 is shown. […] After 24 hours, 20 μg of total RNA was prepared and analyzed for serine/threonine protein phosphatase 5 (PP5), p21^Waf1/Cip1 (p21), and serum/glucocorticoid inducible kinase (sgk) mRNA levels. […] Six hours later, the protein extracts were prepared, and changes in p53 phosphorylation were determined by immunoprecipitation, SDS-PAGE analysis, and visualized by autoradiography (Control, p53 from control cells; ISIS 15534, p53 from cells treated with 500 nM ISIS 15534; Dex, p53 from cells treated with 100 nM dexamethasone).Referring to FIG. 2E, a Western analysis of an Immobilon membrane produced by the transfer of protein from the SDS-PAGE gel and detected with an anti-p53 mouse monoclonal antibody is shown.

In the case of `C[C@@H]1C[C@H]2[C@@H]3CCC4=CC(=O)C=C[C@]4(C)[C@@]3(F)[C@@H](O)C[C@]2(C)[C@@]1(O)C(=O)CO` [dexamethasone, reference compound], the Expression of sgk entry in assay [1] (A549 cells, dexamethasone 0-100 nM) was “dose-dependent increase”; in assay [1] (all three cell lines (A549, T-24, TR9), 100 nM), “induced the expression”. Moreover, in the assay on p53 phosphorylation, the “Phosphorylation of p53” value was “hyperphosphorylation of p53”.
